Data as given in US9045401B2, “Methods for treating or ameliorating a melanoma and killing melanoma cells” (THE REGENTS OF THE UNIVERSITY OF CALIFORNIA, priority 2007, dated 2015).

Test system: A549 cells
Assay: confocal microscopy of ceramide and caspase 8
Format: cell-based, human
Conditions: 300 nM, 30 minutes after treatment
Description: Confocal microscopy. […] After treatment, the cells were fixed 10 minutes at room temperature with 4% PFA, washed twice with PBS, permeabilized 2 minutes at room temperature with 0.1% triton in PBS and blocked for 30 minutes with sterile 2% BSA in PBS. The staining was performed at room temperature for 2 hours (h), with mouse monoclonal anti-human ceramide (Alexis) and rabbit anti-human caspase 8 (BD Pharmingen) antibodies followed by secondary goat anti-mouse ALEXA FLUOR568™ and goat anti-rabbit ALEXA FLUOR488™ antibodies (Invitrogen). The blue DNA binding dye TOPRO-3™ (Molecular Probes) was added together with the secondary antibodies. The cells were washed three times with PBS between the different incubation steps and the incubation with the secondary fluorescently labeled antibodies was performed in the dark. All antibodies were diluted in PBS. Confocal images were recorded on a Nikon ECLIPSE C1™ confocal microscope.

Q: For `CCCCC/C=C\C/C=C\C/C=C\C/C=C\CCCC(=O)O` [arachidonic acid, reference compound], which cell surface ceramide is on record?
A: absent
